This passage reports AC50, IC50 and EC50 results from ChEMBL document CHEMBL1201862, “PubChem BioAssay data set” (2004).

Values joined by “and” are separate entries in the source; they are usually repeats but may differ in a detail not shown here. Identical values can stand only once. Active and inactive are the calls of the source.

In test [1] the target is Paired box protein Pax-8 (Homo sapiens, UniProt Q06710). Description: PAX8 transcriptional activity inhibition in RMG-I – RMG-I cells, luciferase, cherry-pick, dose response (AID 687027).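 Further: luciferase reporter driven by Pax8 target thyroperoxidase promoter measured by SteadyGlo luminescence.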 It is filed as functional, cell-based.
Chain of Paired box protein Pax-8 (Q06710 whole entry): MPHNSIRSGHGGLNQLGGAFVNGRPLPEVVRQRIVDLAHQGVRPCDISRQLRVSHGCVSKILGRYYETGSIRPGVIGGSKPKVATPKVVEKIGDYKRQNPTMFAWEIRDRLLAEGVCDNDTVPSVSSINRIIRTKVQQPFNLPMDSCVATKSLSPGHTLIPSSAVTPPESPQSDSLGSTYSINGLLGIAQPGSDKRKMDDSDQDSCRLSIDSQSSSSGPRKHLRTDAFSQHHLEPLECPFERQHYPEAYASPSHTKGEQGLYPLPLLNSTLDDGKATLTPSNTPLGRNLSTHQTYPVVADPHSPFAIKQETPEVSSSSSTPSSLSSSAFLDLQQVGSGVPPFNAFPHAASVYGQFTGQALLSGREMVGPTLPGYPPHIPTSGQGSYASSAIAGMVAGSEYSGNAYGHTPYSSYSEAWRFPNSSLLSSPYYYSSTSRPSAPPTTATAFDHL
A short description of test [2]: toxicity toward immortalized ovarian surface epithelium – cell-based, plate reader, dry powder samples, cytotoxicity control for PAX8 inhibitor project, dose response (AID 743045). It is filed as functional.
Test [3] can be described thus: OVCAR-3 cell viability loss – plate reader, dry powder samples, PAX8 inhibitor project, dose response (AID 743044). It is filed as functional, cell-based.
Test [4] in a line: IGROV1 cell killing – plate reader, dry powder samples, PAX8 inhibitor project, dose response (AID 743043). Type of test: functional, cell-based. Conditions: IGROV-1.
A short description of test [5]: OVCAR8 cell viability loss – plate reader, dry powder samples, PAX8 project, dose response (AID 743197). It is filed as functional, cell-based. Conditions: OVCAR-8.
For test [6], the target named is NAD-dependent protein deacylase sirtuin-5, mitochondrial (Homo sapiens, UniProt Q9NXA8). Description: sirtuin-5 deacylation blockers, concentration series – biochemical, fluorescence imaging, cherry-pick, set 5, dose response (AID 720591).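 Further: desuccinylation of succinyl peptide AMC substrate read as fluorescence after trypsin release; potency of inhibitors that lower fluorescence and may act on trypsin instead.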
Chain of NAD-dependent protein deacylase sirtuin-5, mitochondrial (Q9NXA8 whole entry): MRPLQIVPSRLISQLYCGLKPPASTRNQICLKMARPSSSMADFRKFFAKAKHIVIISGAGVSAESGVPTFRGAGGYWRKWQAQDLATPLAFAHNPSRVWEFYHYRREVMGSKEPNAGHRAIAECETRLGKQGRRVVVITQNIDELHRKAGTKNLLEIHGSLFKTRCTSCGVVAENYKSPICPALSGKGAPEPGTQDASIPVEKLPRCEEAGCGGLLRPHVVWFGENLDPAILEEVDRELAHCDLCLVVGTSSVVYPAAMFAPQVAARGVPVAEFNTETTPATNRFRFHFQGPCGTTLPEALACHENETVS
Test [7] can be described thus: HEK-293T viability loss after treatment – luminescence, T-cell screen hits, cytotoxicity control for TCR NF-kB inhibitor project, dose response (AID 489026).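 Further: cells exposed to compound about 14 hours before the viability readout.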 Type of test: functional, cell-based.
The nature of test [8]: toxicity toward HEK293 cells – cell-based, dry powder samples, cytotoxicity control, dose response (AID 720567). Type of test: functional.
Test [9] is described as follows: reduced cellular PGC1a acetyl-lysine signal – cell-based, cherry-picked samples, dose response (AID 720514).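 Further: potency may reflect raised or lowered acetylation signal.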 It is filed as functional.
Test [10] in a line: HepG2 cell viability loss – cherry-picked samples, cytotoxicity control, dose response (AID 1053183). Type of test: functional, cell-based.
The nature of test [11]: HEK293 cell viability loss – cherry-picked samples, cytotoxicity control, dose response (AID 1053185). Type of test: functional, cell-based.
A short description of test [12]: A549 cell viability loss – cherry-picked samples, cytotoxicity control, dose response (AID 1053184). It is filed as functional, cell-based.
For test [13], the target named is T1, Potassium channel subfamily K member 9 (Homo sapiens, UniProt Q9NPC2). As to the kind of experiment: TASK3 channel blockers, electrophysiology – cell-based, automated electrophysiology, selectivity assay for TASK1 (KCNK3) inhibitor project, SAR follow-up (AID 652210). It is filed as functional.
T1 sequence (Q9NPC2 whole entry): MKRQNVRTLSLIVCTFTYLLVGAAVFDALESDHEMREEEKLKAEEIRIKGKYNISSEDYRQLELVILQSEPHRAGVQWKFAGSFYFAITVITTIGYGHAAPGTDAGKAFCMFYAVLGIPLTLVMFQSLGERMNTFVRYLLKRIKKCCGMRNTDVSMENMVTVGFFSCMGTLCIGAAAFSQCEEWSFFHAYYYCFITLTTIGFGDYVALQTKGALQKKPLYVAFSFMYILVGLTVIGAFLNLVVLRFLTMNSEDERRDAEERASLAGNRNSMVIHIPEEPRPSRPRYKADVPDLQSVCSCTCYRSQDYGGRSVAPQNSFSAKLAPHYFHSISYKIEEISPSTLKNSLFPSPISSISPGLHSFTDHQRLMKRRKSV
Test [14] concerns the target T1, Potassium channel subfamily K member 9. As to the kind of experiment: KCNK9 flux blockade, concentration-response – cell-based, FluxOR thallium flux, selectivity assay for TASK1 inhibitor project, SAR follow-up (AID 652211).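 Further: potency is for inhibitors of the channel.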 Type of test: functional.
Test [15] has as its target Potassium channel subfamily K member 3 (Rattus norvegicus, UniProt O54912). As to the kind of experiment: SAR analysis for the identification of selective inhibitors of the two-pore domain potassium channel TASK1(KCNK3):Automated Electrophysiology. Type of test: functional.
For test [16], the target named is Potassium voltage-gated channel subfamily KQT member 2 (Rattus norvegicus, UniProt O88943). Description: block of rat KCNQ2 potassium channel – cell-based, FluxOR thallium flux, concentration-response, selectivity assay for TASK1 inhibitor project, SAR follow-up (AID 652192). It is filed as functional.
Chain of Potassium voltage-gated channel subfamily KQT member 2 (O88943 whole entry): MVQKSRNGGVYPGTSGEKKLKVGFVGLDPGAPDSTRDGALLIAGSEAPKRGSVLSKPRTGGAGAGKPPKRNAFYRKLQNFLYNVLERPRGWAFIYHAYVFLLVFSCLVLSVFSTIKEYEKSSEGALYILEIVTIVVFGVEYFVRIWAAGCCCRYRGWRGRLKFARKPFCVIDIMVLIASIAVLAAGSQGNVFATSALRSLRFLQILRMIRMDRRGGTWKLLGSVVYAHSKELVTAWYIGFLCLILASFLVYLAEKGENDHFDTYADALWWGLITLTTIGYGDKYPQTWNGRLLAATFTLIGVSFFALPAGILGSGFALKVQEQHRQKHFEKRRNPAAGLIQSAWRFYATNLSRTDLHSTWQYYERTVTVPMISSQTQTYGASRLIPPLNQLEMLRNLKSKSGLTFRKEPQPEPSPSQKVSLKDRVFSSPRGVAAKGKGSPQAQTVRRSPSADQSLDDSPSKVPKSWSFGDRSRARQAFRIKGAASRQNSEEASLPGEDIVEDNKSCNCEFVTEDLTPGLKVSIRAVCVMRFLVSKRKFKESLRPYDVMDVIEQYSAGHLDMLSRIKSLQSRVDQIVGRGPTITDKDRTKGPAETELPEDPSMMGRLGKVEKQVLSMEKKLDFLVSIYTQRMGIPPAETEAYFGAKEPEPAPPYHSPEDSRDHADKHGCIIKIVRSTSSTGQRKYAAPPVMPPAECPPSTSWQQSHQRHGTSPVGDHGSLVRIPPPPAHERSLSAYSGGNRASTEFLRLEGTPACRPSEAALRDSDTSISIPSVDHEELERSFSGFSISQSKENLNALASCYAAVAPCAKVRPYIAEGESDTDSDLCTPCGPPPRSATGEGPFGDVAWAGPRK
The target in test [17] is Potassium channel subfamily K member 3 (Homo sapiens, UniProt O14649). As to the kind of experiment: inhibition of human KCNK3 channel flux – CHO cells, FluxOR thallium flux, SAR follow-up (AID 652212). It is filed as functional.
Chain of Potassium channel subfamily K member 3 (Homo sapiens, UniProt O14649) (O14649 whole entry): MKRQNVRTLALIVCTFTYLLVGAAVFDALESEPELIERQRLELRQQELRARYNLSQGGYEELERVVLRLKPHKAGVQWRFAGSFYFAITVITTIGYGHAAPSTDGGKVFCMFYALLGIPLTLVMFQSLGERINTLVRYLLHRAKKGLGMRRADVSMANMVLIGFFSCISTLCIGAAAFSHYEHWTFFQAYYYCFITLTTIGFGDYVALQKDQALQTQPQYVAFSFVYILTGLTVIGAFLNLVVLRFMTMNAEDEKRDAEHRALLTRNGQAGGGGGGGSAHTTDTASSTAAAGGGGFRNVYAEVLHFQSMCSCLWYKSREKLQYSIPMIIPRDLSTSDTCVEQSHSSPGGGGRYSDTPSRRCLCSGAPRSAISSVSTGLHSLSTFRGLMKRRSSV
In test [18] the test system is HEK293. As to the kind of experiment: inhibition of NOD1-driven NF-kB reporter – cell-based, luminescence, uHTS, primary screen (AID 1578). Type of test: functional. The conditions noted are these: Homo sapiens.
For test [19], the system named is HEK293. As to the kind of experiment: cells. It is filed as functional, cell-based. The conditions noted are these: Homo sapiens.
The test system of test [20] is HEK293. As to the kind of experiment: cells. It is filed as functional, cell-based. The conditions noted are these: Homo sapiens. The source holds these as a separate data set.
Test [21] has as its target T2, Estrogen receptor (Homo sapiens, UniProt P03372).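 Further: potency for inhibiting coactivator peptide recruitment to the receptor.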
T2 sequence (P03372 whole entry): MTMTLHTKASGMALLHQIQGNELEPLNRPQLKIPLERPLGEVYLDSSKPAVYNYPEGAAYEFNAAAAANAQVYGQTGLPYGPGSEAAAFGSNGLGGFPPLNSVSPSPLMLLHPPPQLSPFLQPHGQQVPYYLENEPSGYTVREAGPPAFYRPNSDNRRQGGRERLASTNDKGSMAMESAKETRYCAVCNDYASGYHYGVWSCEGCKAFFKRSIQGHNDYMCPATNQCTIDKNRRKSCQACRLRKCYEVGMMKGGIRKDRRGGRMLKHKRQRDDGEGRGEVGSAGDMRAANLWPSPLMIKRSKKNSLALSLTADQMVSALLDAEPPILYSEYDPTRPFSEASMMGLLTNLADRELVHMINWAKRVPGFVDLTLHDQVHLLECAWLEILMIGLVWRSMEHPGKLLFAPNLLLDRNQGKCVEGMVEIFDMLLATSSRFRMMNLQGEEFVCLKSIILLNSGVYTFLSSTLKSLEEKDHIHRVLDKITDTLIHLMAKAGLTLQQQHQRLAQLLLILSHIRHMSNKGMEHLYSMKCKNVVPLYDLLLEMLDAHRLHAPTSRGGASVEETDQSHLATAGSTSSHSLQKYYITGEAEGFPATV

The target of test [22] is Nucleotide-binding oligomerization domain-containing protein 2 (Homo sapiens, UniProt Q9HC29). As to the kind of experiment: inhibition of NOD2-driven NF-kB reporter – cell-based, luminescence, uHTS, HEK293 (AID 1566). It is filed as functional.
Chain of Nucleotide-binding oligomerization domain-containing protein 2 (Q9HC29 whole entry, the tested form may be a part): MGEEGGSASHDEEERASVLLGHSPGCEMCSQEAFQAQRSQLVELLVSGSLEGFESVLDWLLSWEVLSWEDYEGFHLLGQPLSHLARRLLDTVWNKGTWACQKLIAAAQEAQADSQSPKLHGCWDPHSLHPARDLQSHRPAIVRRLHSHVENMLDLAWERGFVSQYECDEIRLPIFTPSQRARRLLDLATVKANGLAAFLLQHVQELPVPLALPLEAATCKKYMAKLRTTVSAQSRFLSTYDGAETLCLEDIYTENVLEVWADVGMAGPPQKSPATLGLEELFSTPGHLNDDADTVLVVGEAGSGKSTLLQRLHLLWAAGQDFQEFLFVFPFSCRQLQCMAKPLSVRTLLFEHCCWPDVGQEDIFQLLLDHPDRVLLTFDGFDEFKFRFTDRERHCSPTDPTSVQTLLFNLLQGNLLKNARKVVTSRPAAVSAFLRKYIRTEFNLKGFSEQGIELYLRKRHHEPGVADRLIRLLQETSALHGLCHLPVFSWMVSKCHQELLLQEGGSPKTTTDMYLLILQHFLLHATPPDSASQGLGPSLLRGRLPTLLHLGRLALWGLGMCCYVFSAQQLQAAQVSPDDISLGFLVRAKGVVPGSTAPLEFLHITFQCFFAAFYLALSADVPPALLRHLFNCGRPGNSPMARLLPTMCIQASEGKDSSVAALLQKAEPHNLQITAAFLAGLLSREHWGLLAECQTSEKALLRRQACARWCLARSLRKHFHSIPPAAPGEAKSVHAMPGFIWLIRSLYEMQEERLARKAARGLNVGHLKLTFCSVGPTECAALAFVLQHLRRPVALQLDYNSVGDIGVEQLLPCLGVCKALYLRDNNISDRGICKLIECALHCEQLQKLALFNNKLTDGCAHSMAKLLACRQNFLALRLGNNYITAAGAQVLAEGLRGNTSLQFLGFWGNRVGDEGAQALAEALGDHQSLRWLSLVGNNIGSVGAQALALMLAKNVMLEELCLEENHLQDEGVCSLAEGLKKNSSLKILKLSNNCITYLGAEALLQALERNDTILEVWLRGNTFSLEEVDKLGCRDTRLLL
The subject of test [23] is HEK293. As to the kind of experiment: NOD2 signaling inhibitors in MDP-stimulated cells, cell-based, uHTS, luminescence (AID 2001). The conditions noted are these: Homo sapiens. It is filed as functional.
Test [24] relates to HEK293. As to the kind of experiment: cells. It is filed as functional, cell-based. Conditions: Homo sapiens. This is another data set of the same source.
Test [25] in a line: blockers of HIV-1 envelope-mediated cell-cell fusion – cherry-pick, dose response (AID 652057). It is filed as functional, cell-based.
Test [26] is described as follows: blockers of HIV-1 ZM109 envelope-driven cell-cell fusion – HeLa effector, CEM target cells, luciferase, cherry-pick, dose response (AID 652058).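 Further: luciferase signal from HIV-1 Env mediated cell-cell fusion of effector and target cells.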 It is filed as functional, cell-based.
The nature of test [27]: off-target signal loss in HeLa-CEM21 co-culture – HeLa F-luc CTL cells, cherry-picked, counter-screen for HIV-1 Env fusion inhibitor project, dose response (AID 652040).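 Further: potency for signal decrease marking cytotoxic or nonspecific inhibition.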 It is filed as functional, cell-based.
A short description of test [28]: HIV-1 AD8 envelope cell-cell fusion blockers – cherry-pick, dose response (AID 652062).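 Further: luciferase signal from cell-cell fusion driven by HIV-1 clade B AD8 Env; potency is for inhibitors of fusion seen as a drop in luminescence.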 Type of test: functional, cell-based.
Test [29] can be described thus: inhibition of Env-driven cell fusion – HIV entry, plate reader, dry powder, dose response (AID 687023). It is filed as functional, cell-based.
The nature of test [30]: viability loss in CEM21 cells – cell-based, plate reader, dry powder, cytotoxicity control, dose response (AID 687026). It is filed as functional.
For test [31], the target named is T3, Protein skinhead-1 (Caenorhabditis elegans, UniProt P34707).
T3 sequence (P34707 whole entry): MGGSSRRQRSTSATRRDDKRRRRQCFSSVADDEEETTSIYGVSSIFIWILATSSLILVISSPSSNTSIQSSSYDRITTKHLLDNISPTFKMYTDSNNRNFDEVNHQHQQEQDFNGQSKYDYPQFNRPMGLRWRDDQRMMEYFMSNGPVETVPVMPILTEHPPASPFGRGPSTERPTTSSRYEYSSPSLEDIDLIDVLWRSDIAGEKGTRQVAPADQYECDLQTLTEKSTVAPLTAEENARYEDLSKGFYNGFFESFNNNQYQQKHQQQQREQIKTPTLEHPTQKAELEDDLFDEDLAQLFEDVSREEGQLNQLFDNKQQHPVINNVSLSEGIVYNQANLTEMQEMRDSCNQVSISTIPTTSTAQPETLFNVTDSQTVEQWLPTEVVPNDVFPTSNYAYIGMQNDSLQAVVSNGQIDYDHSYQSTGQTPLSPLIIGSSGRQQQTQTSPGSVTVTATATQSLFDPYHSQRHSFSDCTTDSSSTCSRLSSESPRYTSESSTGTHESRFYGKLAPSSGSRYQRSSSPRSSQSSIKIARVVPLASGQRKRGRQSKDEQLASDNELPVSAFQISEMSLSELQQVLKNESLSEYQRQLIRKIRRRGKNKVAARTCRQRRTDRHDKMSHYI
Type of test: functional.

A short description of test [32]: Luminescence-based cell-based high throughput dose response assay to identify activators of the DAF-12 from the parasite S. stercoralis (ssDAF-12). Type of test: functional.
The nature of test [33]: A549 cell cytotoxicity, dose response, cytotoxicity control, plate reader, cherry-pick, antagonist series (AID 743412). Type of test: functional, cell-based.
Test [34] can be described thus: toxicity toward HepG2 liver cells – cell-based, plate reader, cherry-pick, antagonist series, cytotoxicity control, dose response (AID 743416). It is filed as functional.
The nature of test [35]: blockers of bursicon-stimulated LGR2 cAMP reporter – cell-based, HEK293, CRE-luciferase reporter, cherry pick, set 2, dose response (AID 743343).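 Further: transfected cells were stimulated with diluted bursicon conditioned medium after compound addition.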 It is filed as functional.
The nature of test [36]: viability loss in HepG2 hepatoma cells – cell-based, ATP luminescence, cherry-pick, activator set 2, cytotoxicity control, dose response (AID 1053143). Type of test: functional.
A short description of test [37]: blockade of melanocortin 4 receptor signaling – cell-based, plate reader, cherry pick, counter-screen for LGR2 antagonist project, dose response (AID 743444).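 Further: transfected HEK 293 cells stimulated with alpha-MSH peptide; potency of inhibitors of the alpha-MSH evoked signal.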 Type of test: functional.

Chain of Potassium channel subfamily K member 3 (Rattus norvegicus, UniProt O54912) (O54912 whole entry, the tested form may be a part): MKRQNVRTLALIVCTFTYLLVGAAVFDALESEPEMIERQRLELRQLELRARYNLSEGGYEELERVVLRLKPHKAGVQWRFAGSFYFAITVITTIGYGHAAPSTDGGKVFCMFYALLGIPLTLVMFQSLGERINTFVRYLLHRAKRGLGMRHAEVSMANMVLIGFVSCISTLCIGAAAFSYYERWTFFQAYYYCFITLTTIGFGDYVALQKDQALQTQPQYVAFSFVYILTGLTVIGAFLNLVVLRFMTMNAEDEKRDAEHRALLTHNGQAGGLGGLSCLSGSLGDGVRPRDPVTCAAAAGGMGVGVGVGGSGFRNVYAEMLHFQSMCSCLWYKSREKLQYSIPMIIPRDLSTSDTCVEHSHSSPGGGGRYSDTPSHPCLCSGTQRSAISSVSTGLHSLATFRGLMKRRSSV

In the case of `Cc1ccc(S(=O)(=O)Nc2ccc3c(c2)C(=O)N([C@H](C)CO)C[C@H](C)[C@@H](CN(C)Cc2ccc(C(F)(F)F)cc2)OCCCC[C@H](C)O3)cc1`, the AC50 is 4.62 µM (active) in [1]; 18.1 µM (active) in test [2]; 10.3 µM (active) in test [3]; 15 µM (active) in test [4]; 16.6 µM (active) in test [5].
`COc1ccc(-n2c(/C=C/c3ccc4c(c3)OCO4)nc3ccccc3c2=O)cc1`: the AC50 in test [6] is > 30 µM (inactive).
On to `CCOC(=O)COc1cccc2c(=O)n(CC(=O)NCc3ccccc3)ccc12`, for which the IC50 in [7] is > 80 µM (inactive). For the same compound, the AC50 in [8] was > 30 µM (inactive).
As to `Cc1cccc(-c2ccc([C@@H]3[C@@H]4CN(Cc5cccc(F)c5)C[C@H]3N4)cc2)c1`, the AC50 was 20.4 µM (active) in test [9], 17.7 µM (active) in [10], 27.1 µM (active) in test [11] and 35.4 µM (active) in test [12].
With `CCOc1ccccc1C(=O)Nc1cccc(NC(=O)c2cccc(C)c2)c1`, the half-maximal inhibitory concentration (IC50) was 0.38 µM (active) in test [13]; 0.44 µM (active) in [14]; 0.011 µM (active) in [15]; 1.88 µM (active) in [16]; 0.01 µM (active) in test [17].
For the compound `O=C(CCCn1c(=S)[nH]c2cc3c(cc2c1=O)OCO3)N1CCN(c2ccc(Cl)cc2)CC1`, the figures for the concentration giving a half-maximal response (EC50) in [18] and in [22] were 7.73 µM (active) and 3.83 µM (active), respectively. In addition, the IC50 in [19] was 8.75 µM (active); in test [20], 16.4 µM (active); in test [21], 12.6 µM (active); in [23], 6.5 µM (active); in test [24], > 20 µM (inactive). The AC50 in test [25] is 2.75 µM (active); in [26], 5.45 µM (active); in test [27], 44.3 µM (active); in [28] it was 7.01 µM (active); in test [29] it was 5.71 µM (active) and 5.84 µM (active); in test [30], > 70 µM (inactive).
With `Cc1cc(-c2nc3cc(F)ccc3s2)ccc1N`, the IC50 in test [31] was 19.1 µM (active); in test [32], > 67.6 µM (inactive). For the same compound, the half-maximal activity concentration (AC50) in test [33] is 21.4 µM (active); in test [34], 0.0824 µM (active); in test [35] it was 3.96 µM (active); in [36], 0.55 µM (active); in test [37], 3.8 µM (active).
